Where two headings read alike, the source gives them in different places.
Columns and labels:
[1] = test system: Human mammary epithelial cells (HMEC) engineered to express EGFP alone (non myc); assay: 3D spheroid assay, non myc-HMEC (CellTiterGlo3D viability); format: cell-based; conditions: 120 h, 3D spheroids, 5 days with compound, read-out: Code: EC50 value in the non myc-HMEC assay
Method: (§1) 3D Spheroid Experiments—HMEC
(§2) Human mammary epithelial cells (HMEC) were engineered to express either c-myc tagged with EGFP or EGFP alone (non myc) (analogous but distinct from Kessler J D et al, Science. 2012 Jan. 20; 335(6066):348-53. doi: 10.1126/science.1212728; Hsu T Y et al, Nature. 2015 Sep. 17; 525(7569):384-8. doi: 10.1038/nature14985). The engineered cells were seeded at 1000 (myc) or 4000 (non myc) cells/well in a 384 ultra-low attachment plate in a total volume of 40 µL, HMEC cell culture media (DMEM/F12+10% HI-FBS+15 mM HEPES+0.5 ug/ml Hydrocortisone+10 ug/ml Insulin+20 ng/ml EGF). Plates were spun at 1200 rpm for 5 minutes at room temperature to ensure that cells have gathered in the middle of the well and incubated at 37° C. for 48 hrs before firing with compounds. On Day 2 (48 h post seeding) cells were imaged (brightfield and EGFP fluorescence) using the Celigo imaging cytometer prior to firing compounds. For primary screens, compounds were added at three concentrations (1.25, 10 and 30 uM) in a volume of 120 nL using the ECHO acoustic dispenser and spun at 2000 rpm for 2 minutes at room temperature before incubating at 37° C. for 5 days. […] On Day 7, prior to measuring cell viability using CellTiterGlo3D, cells were imaged (brightfield and EGFP fluorescence) on the Celigo imaging cytometer. The CellTiterGlo3D reagent is added at 30uL/well and incubated at room temperature for 30mins After 30mins of incubation, luminescence readings were recorded using the Perkin Elmer EnVision reader.

[2] = test system: Human mammary epithelial cells (HMEC) engineered to express c-myc tagged with EGFP; assay: 3D spheroid assay, myc-HMEC (CellTiterGlo3D viability); format: cell-based; conditions: Homo sapiens, HMEC, 120 h, 3D spheroids, 5 days with compound, read-out: Code: EC50 value in the myc-HMEC assay
Method: as §1, §2

GSPT1 = GSPT1 (Homo sapiens, UniProt P15170+Q96SW2); assay: Immunofluorescence assay for GSPT1 degradation in CAL-51 cells; format: cell-based; parameters: CAL-51 cells were purchased from DSMZ (cat. Number ACC302); endogenous in cells; host or cells: CAL-51 (DSMZ ACC302); conditions: compound treatment 6 hours
Method: CAL-51 cells were purchased from DSMZ (cat. Number ACC302), sub-cultured in 90% Dulbecco's MEM (4.5 g/L glucose, Gibco 11965) +10% heat inactivated FBS (BioConcept, 2-01F136I) and incubated at 37° C., 5% CO2. For the assay, imaging microtiterplate Cell Carrier 96 Ultra (Perkin Elmer 6055302) were pre-coated with Fibronectin (Sigma F085, 300 at 0.2 μg/ml) in PBS (1000, Gibco 14190) for 45 min at room temperature, rinsed with PBS and CAL-51 cells (30K cells/well) were plated and let to adhere overnight. Cells were treated with compounds typically using a serial dilution ranging from 30 μM to 0.1 nM for 6 hours. Compounds were stored at 10 mM DMSO stocks. Vehicle (DMSO), positive (CC-885, 10 μM) and rescue controls (positive control plus 0.2 μM bortezomib) were also included at this stage. Cells were subsequently rinsed with PBS and fixed in 10% Formalin solution (50 μl, Sigma HT5011)) for 20 mins at room temperature. Following three consecutive PBS washes (100 μl), cells were permeabilized in 0.1% Triton X-100 in PBS (Sigma 93443, 50 μl) for 15 mins at room temperature. Following three further PBS washes, 50 μl blocking buffer (1% BSA, Sigma A4503, in PBS) was added for 45 min for signal-to-noise reduction. Primary antibody (human GSPT1, Sigma HPA052488) was diluted in blocking buffer (dil. 1/300, 35 μl/well) and incubated with the cells overnight at 4° C. After three PBS washes, Alexa-fluor 488 coupled secondary antibodies (Invitrogen, A32731, dil. 1/1000), Alexa-fluor 647-Phalloïdin (Invitrogen, A22287, dil. 1/200) and DAPI (Thermo, #62248, dil.1/1000) were diluted in blocking buffer and incubated with the samples for 2 hours at room temperature. After three final PBS washes, samples were conserved in 1000 PBS in the dark, until measurement. Image acquisition was performed on the Operetta High-Content Imager (Perkin-Elmer). Fluorescence intensity of Alexa-Fluor 488 (GSPT1), Alexa-Fluor 647 (Actin) and DAPI (Nucleus) were measured. For the determination of GSPT1 DC50 values, a custom algorithm implemented in the PerkinElmer image analysis software Harmony-Acapella® was developed. After user-defined setting of adjustment parameters, the analysis was run identically without human intervention for all image fields. DAPI staining of the nuclei was used to determine the location of cells using standard nuclei detection modules. Segmentation artifacts were removed by threshold-based filters for area, roundness and intensity. The outline of the cells was determined analogously from the sum of the normalized, smoothed DAPI and Actin channel, starting from each nucleus. The Alexa-Fluor 488 (GSPT1) signal intensity in each cell was finally measured, in order to obtain a Mean intensity per cell. GSPT1 degradation (DC50) was calculated after normalization to controls and data import in CDD vault Database, using non-linear regression. Activity for GSPT1 Degradation Table 3 assigns each compound a code indicating the ability for GSPT1 degradation: A, B or C. According to the code, A represents a DC50 value of ≤100 nM, B represents a DC50 value >100 nM and ≤300 nM and C represents a DC50 value of >300 nM.

[3] = target: T1, Full length wild-type cereblon CRBN (Homo sapiens, UniProt Q96SW2); assay: Fluorescence polarization (FP) assay indicating cereblon binding; conditions: CRBN 80.0 nM, fluorescent probe 5 nM, FP measured after 12 hours; read-out: rFP IC50
T1 construct: Full length wild-type cereblon CRBN (80.0 nM, 10 μL) was incubated in assay buffer
Text: Protocol for Fluorescent Polarization Assay
Compound activity was monitored in a fluorescence polarization (FP) homogeneous assay using 1-[5-({2-[2-(2-{[2-(2,6-dioxopiperidin-3-yl)-1,3-dioxo-2,3-dihydro-1H-isoindol-4-yl]oxy}acetamido)ethoxy]ethyl}carbamoyl)pentyl]-3,3-dimethyl-2-[(1E,3E)-5-[(2E)-1,3,3-trimethyl-5-sulfo-2,3-dihydro-1H-indol-2-ylidene]penta-1,3-dien-1-yl]-3H-indol-1-ium-5-sulfonate as a fluorescent probe. Unless otherwise stated, all reagents were purchased from Sigma Aldrich. Enzymatic reactions were conducted in Perkin-Elmer Black 384 well ProxiPlate Plus (catalogue no. 6008269) in 10 μL total volume. Full length wild-type cereblon CRBN (80.0 nM, 10 μL) was incubated in assay buffer containing 20 mM HEPES (pH 8.0), […], 0.5 mM TCEP and 0.05% Tween 20 in the presence or absence of compound (300 nL). Inhibitors were stored as 10 mM DMSO stocks in an inert environment (low humidity, dark, low oxygen, room temperature) using the Storage Pod System. Compounds and DMSO were dispensed using the Echo E5XX (Labcyte Inc. USA) to give concentrations from 300 to 0.937 or 3000 to 9.3 nM in a 12 data point curve. […] Following incubation at room temperature for […], the assay was initiated by dispensing the probe to a final concentration of 5 nM (2.5 nL of a 20 μM stock) using the Echo E5XX. FP was measured after a period of 12 hours using a Pherastar plate reader (BMG Labtech, Germany) exciting at 590 nm and measuring the amount of parallel and perpendicular light at 675 nm. The FP signal was subsequently normalized to the no-compound control (i.e., DMSO). Analysis and IC50 values were derived using Dotmatics (Dotmatics UK) software.

[4] = read-out: Code: activity for GSPT1 degradation (DC50)

T1 sequence (Q96SW2 whole entry): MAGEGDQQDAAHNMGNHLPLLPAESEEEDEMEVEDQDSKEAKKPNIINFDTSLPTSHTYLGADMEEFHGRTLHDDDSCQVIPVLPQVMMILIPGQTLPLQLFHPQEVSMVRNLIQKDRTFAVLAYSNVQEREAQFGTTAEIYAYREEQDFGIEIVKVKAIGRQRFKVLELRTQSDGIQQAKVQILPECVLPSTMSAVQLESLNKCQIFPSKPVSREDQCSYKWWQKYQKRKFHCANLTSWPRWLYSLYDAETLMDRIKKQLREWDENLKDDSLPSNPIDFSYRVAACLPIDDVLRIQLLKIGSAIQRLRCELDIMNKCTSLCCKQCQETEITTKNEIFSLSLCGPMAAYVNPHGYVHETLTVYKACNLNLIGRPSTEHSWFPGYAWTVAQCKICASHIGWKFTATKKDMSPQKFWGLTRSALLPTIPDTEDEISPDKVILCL
GSPT1, sequence (P15170 whole entry): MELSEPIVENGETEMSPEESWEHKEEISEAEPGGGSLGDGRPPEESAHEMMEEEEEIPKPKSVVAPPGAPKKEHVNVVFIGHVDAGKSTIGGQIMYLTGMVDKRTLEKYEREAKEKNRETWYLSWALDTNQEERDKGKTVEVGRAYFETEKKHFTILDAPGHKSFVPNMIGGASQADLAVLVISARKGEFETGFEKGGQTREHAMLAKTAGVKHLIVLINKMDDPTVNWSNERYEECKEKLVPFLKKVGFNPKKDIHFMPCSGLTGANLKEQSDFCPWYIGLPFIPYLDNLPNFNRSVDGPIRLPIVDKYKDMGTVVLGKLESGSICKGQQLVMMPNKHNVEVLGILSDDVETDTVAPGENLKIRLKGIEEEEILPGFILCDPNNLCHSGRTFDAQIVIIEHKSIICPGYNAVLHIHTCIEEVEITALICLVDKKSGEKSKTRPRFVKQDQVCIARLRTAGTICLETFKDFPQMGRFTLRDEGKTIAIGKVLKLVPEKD
GSPT1, sequence (Q96SW2 whole entry): as the sequence (Q96SW2 whole entry) above
GSPT1, sequence (Q16531 2-1140 partner limits assumed): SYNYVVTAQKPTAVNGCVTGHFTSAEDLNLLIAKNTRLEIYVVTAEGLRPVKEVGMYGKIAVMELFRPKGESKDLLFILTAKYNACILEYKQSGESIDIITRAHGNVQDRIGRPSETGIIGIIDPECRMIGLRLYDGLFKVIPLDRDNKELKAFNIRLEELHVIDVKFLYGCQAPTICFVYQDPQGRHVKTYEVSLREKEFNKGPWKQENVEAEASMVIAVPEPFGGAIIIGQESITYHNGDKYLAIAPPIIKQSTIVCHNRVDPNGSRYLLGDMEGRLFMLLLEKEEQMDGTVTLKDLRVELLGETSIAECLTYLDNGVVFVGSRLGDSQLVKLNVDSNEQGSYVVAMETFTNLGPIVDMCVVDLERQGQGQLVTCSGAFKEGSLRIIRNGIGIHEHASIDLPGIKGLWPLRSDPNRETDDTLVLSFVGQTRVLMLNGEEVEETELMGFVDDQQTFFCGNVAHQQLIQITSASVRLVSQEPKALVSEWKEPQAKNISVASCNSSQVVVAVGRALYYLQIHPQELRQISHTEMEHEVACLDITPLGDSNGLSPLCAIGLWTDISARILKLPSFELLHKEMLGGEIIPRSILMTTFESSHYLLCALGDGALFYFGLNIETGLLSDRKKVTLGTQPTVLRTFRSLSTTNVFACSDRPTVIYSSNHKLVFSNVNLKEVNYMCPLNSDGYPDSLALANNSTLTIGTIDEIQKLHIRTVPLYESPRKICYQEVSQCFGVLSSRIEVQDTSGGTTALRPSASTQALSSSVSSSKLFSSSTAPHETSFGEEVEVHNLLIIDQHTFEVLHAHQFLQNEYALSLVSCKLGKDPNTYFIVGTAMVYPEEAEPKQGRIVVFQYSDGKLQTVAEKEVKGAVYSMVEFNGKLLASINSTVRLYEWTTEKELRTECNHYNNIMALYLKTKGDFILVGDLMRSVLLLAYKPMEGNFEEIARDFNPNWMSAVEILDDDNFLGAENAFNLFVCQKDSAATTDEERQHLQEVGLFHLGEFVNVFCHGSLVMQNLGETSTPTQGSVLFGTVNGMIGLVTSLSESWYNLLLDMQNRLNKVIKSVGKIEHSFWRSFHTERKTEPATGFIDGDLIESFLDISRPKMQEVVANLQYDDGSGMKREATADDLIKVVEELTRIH

## O=C1CCC(N2Cc3ccc(CNC(=O)Nc4ccccc4)cc3C2=O)C(=O)N1 (stereo not drawn) [Compound 1]
[1]
  EC50: > 10000 nM
[2]
  EC50: > 2000 nM
GSPT1; [4]
  DC50: > 300 nM
[3]
  IC50: 1040 nM

## O=C1CCC(N2Cc3ccc(CNC(=O)Nc4ccc(Cl)cc4)cc3C2=O)C(=O)N1 (stereo not drawn) [Compound 2]
[1]
  EC50: > 10000 nM
[2]
  EC50: > 2000 nM
GSPT1; [4]
  DC50: > 300 nM
[3]
  IC50: 254 nM

## O=C1CCC(N2Cc3ccc(CNC(=O)Nc4cccc(Cl)c4)cc3C2=O)C(=O)N1 (stereo not drawn) [Compound 3]
[1]
  EC50: > 10000 nM
[2]
  EC50: > 2000 nM
GSPT1; [4]
  DC50: > 300 nM
[3]
  IC50: 400 nM

## O=C1CCC(N2Cc3ccc(CNC(=O)Nc4ccccc4Cl)cc3C2=O)C(=O)N1 (stereo not drawn) [Compound 4]
[1]
  EC50: > 10000 nM
[2]
  EC50: > 2000 nM
GSPT1; [4]
  DC50: > 300 nM
[3]
  IC50: 483 nM

## COc1ccc(NC(=O)NCc2ccc3c(c2)C(=O)N(C2CCC(=O)NC2=O)C3)cc1 (stereo not drawn) [Compound 5]
[1]
  EC50: > 10000 nM
[2]
  EC50: > 2000 nM
GSPT1; [4]
  DC50: > 300 nM
[3]
  IC50: 339 nM

## COc1cccc(NC(=O)NCc2ccc3c(c2)C(=O)N(C2CCC(=O)NC2=O)C3)c1 (stereo not drawn) [Compound 6]
[1]
  EC50: > 10000 nM
[2]
  EC50: > 2000 nM
GSPT1; [4]
  DC50: > 300 nM
[3]
  IC50: 467 nM

## COc1ccccc1NC(=O)NCc1ccc2c(c1)C(=O)N(C1CCC(=O)NC1=O)C2 (stereo not drawn) [Compound 7]
[1]
  EC50: > 10000 nM
[2]
  EC50: > 2000 nM
GSPT1; [4]
  DC50: > 300 nM
[3]
  IC50: 324 nM

## COc1cc(C)c(Cl)cc1NC(=O)NCc1ccc2c(c1)C(=O)N(C1CCC(=O)NC1=O)C2 (stereo not drawn) [Compound 76]
[1]
  EC50: > 10000 nM
GSPT1; [4]
  DC50: ≤ 100 nM
[3]
  IC50: 281 nM

## O=C1CCC(N2Cc3ccc(CNC(=O)Nc4ccc(OC(F)(F)F)cc4)cc3C2=O)C(=O)N1 (stereo not drawn) [Compound 77]
[1]
  EC50: > 10000 nM
GSPT1; [4]
  DC50: ≤ 100 nM
[3]
  IC50: 570 nM

## Cc1cc(Cl)c(NC(=O)NCc2ccc3c(c2)C(=O)N(C2CCC(=O)NC2=O)C3)cc1Cl (stereo not drawn) [Compound 78]
[1]
  EC50: > 10000 nM
GSPT1; [4]
  DC50: ≤ 100 nM
[3]
  IC50: 725 nM

## Cc1cnc(NC(=O)NCc2ccc3c(c2)C(=O)N(C2CCC(=O)NC2=O)C3)s1 (stereo not drawn) [Compound 147]
GSPT1; [4]
  DC50: > 300 nM
[3]
  IC50: 253 nM

## CCc1cnc(NC(=O)NCc2ccc3c(c2)C(=O)N(C2CCC(=O)NC2=O)C3)s1 (stereo not drawn) [Compound 148]
GSPT1; [4]
  DC50: > 300 nM
[3]
  IC50: 169 nM

## O=C1CCC(N2Cc3ccc(CNC(=O)Nc4cc(C(F)(F)F)ns4)cc3C2=O)C(=O)N1 (stereo not drawn) [Compound 149]
GSPT1; [4]
  DC50: > 300 nM
[3]
  IC50: 1130 nM

## Cc1nc(NC(=O)NCc2ccc3c(c2)C(=O)N(C2CCC(=O)NC2=O)C3)sc1C (stereo not drawn) [Compound 150]
GSPT1; [4]
  DC50: > 300 nM
[3]
  IC50: 304 nM

## Cc1c(CN2CCOCC2)cc(NC(=O)NCc2ccc3c(c2)C(=O)N(C2CCC(=O)NC2=O)C3)cc1OC(F)(F)F (stereo not drawn) [Compound 151]
GSPT1; [4]
  DC50: ≤ 100 nM
[3]
  IC50: 883 nM

## Cc1ccc(CNC(=O)NCc2ccc3c(c2)C(=O)N(C2CCC(=O)NC2=O)C3)cc1Cl (stereo not drawn) [Compound 152]
GSPT1; [4]
  DC50: > 300 nM
[3]
  IC50: 284 nM

## O=C1CCC(N2Cc3ccc(CNC(=O)Nc4ccc5c(c4)OCO5)cc3C2=O)C(=O)N1 (stereo not drawn) [Compound 153]
GSPT1; [4]
  DC50: > 300 nM
[3]
  IC50: 1840 nM

## Cc1c(Cl)cc(NC(=O)NCc2ccc3c(c2)C(=O)N(C2CCC(=O)NC2=O)C3)cc1C12CC1CN(C)C2 (stereo not drawn) [Compound 155]
GSPT1; GSPT1 degradation, read-out: DC50
  DC50: 176 nM
GSPT1; [4]
  DC50: 100 to 300 nM
[3]
  IC50: 581 nM

## Cc1c(Cl)cc(NC(=O)NCc2ccc3c(c2)C(=O)N(C2CCC(=O)NC2=O)C3)cc1C=O (stereo not drawn) [Compound 156]
GSPT1; [4]
  DC50: > 300 nM
[3]
  IC50: 607 nM

## Cc1ncc(NC(=O)NCc2ccc3c(c2)C(=O)N(C2CCC(=O)NC2=O)C3)cc1Cl (stereo not drawn) [Compound 157]
GSPT1; [4]
  DC50: > 300 nM
[3]
  IC50: 1520 nM

## Cc1cc(NC(=O)NCc2ccc3c(c2)C(=O)N(C2CCC(=O)NC2=O)C3)cc(C)n1 (stereo not drawn) [Compound 158]
GSPT1; [4]
  DC50: > 300 nM
[3]
  IC50: 1440 nM

## Cc1ccc(NC(=O)NCc2ccc3c(c2)C(=O)N(C2CCC(=O)NC2=O)C3)cc1OC(F)F (stereo not drawn) [Compound 159]
GSPT1; [4]
  DC50: > 300 nM
[3]
  IC50: 676 nM

## CN1CCC(COc2cc(Cl)cc(NC(=O)NCc3ccc4c(c3)C(=O)N(C3CCC(=O)NC3=O)C4)c2)C1 (stereo not drawn) [Compound 161]
GSPT1; [4]
  DC50: > 300 nM
[3]
  IC50: 300 nM

## CN1CCC(Oc2cc(Cl)cc(NC(=O)NCc3ccc4c(c3)C(=O)N(C3CCC(=O)NC3=O)C4)c2)C1 (stereo not drawn) [Compound 162]
GSPT1; [4]
  DC50: > 300 nM
[3]
  IC50: 699 nM

## CC(C)(C)c1ccc(NC(=O)NCc2ccc3c(c2)C(=O)N(C2CCC(=O)NC2=O)C3)cn1 (stereo not drawn) [Compound 163]
GSPT1; [4]
  DC50: ≤ 100 nM
[3]
  IC50: 1470 nM

## O=C1CCC(N2Cc3ccc(CNC(=O)Nc4cc(OC(F)(F)F)ccn4)cc3C2=O)C(=O)N1 (stereo not drawn) [Compound 164]
GSPT1; [4]
  DC50: > 300 nM
[3]
  IC50: 1600 nM

## O=C1CCC(N2Cc3ccc(CNC(=O)Nc4cc(F)cc(OC(F)(F)F)c4)cc3C2=O)C(=O)N1 (stereo not drawn) [Compound 165]
GSPT1; [4]
  DC50: > 300 nM
[3]
  IC50: 1630 nM
